Test results as given in patent EP4722207A1, “OXOISOINDOLINYL-SUBSTITUTED TETRAHYDROPYRIMIDINEDIONE DERIVATIVE AND USE THEREOF” (Gluetacs Therapeutics (Shanghai) Co., Ltd., priority 2023, dated 2024).

Legend:
H292 = assay: Cell viability assay (CellTiter-Meiluncell Luminescent), tumor cell proliferation, H292; settings: Homo sapiens, NCI-H292, 96 h; for inhibition at 0.01 µM: read-out: Inhibition Rate at 10 nM (%); for inhibition at 0.5 µM: read-out: Inhibition Rate at 500 nM (%)
IKZF3 = target: T1, IKZF3 (Homo sapiens, UniProt Q96SW2+Q9UKT9); assay: Western-blot assay, substrate protein degradation in hPBMCs: IKZF3; type: cell-based; settings: for substrate protein remaining % IKZF3: 24 hours of compound treatment, 50 nM and 500 nM; for IKZF3 substrate protein remaining %: compounds at 50 nM and 500 nM, 24 hours
T1 construct: effects of the compounds of the present disclosure on the expression of target proteins in cells; endogenous in cells; host or cells: human PBMCs (hPBMCs)
T1 sequence (Q9UKT9 whole entry): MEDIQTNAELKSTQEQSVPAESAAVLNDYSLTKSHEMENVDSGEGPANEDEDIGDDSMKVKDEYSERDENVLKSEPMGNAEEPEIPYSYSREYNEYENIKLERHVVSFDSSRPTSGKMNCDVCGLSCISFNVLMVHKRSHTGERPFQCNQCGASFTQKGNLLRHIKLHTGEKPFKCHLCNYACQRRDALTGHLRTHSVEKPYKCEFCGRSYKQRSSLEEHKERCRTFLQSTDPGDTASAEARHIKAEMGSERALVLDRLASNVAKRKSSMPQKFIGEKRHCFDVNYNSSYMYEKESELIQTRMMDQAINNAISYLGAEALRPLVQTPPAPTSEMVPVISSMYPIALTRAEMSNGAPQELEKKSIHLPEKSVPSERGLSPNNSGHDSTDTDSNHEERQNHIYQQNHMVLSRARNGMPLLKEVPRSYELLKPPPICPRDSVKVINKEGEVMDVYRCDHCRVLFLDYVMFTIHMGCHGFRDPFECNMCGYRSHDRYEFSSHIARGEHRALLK
T1 sequence (Q96SW2 whole entry): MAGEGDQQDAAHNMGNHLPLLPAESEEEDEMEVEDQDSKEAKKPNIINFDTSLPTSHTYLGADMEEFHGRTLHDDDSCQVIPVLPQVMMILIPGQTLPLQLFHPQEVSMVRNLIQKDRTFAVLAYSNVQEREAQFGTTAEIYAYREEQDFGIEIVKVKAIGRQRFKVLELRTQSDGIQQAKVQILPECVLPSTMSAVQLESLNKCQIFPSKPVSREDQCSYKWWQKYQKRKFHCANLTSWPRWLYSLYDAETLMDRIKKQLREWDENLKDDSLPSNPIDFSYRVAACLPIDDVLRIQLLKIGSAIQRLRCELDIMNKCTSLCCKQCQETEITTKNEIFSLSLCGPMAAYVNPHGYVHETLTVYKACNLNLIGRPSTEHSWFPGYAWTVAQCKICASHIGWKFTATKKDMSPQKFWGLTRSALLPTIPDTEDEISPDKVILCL
T1 sequence (Q16531 whole entry partner): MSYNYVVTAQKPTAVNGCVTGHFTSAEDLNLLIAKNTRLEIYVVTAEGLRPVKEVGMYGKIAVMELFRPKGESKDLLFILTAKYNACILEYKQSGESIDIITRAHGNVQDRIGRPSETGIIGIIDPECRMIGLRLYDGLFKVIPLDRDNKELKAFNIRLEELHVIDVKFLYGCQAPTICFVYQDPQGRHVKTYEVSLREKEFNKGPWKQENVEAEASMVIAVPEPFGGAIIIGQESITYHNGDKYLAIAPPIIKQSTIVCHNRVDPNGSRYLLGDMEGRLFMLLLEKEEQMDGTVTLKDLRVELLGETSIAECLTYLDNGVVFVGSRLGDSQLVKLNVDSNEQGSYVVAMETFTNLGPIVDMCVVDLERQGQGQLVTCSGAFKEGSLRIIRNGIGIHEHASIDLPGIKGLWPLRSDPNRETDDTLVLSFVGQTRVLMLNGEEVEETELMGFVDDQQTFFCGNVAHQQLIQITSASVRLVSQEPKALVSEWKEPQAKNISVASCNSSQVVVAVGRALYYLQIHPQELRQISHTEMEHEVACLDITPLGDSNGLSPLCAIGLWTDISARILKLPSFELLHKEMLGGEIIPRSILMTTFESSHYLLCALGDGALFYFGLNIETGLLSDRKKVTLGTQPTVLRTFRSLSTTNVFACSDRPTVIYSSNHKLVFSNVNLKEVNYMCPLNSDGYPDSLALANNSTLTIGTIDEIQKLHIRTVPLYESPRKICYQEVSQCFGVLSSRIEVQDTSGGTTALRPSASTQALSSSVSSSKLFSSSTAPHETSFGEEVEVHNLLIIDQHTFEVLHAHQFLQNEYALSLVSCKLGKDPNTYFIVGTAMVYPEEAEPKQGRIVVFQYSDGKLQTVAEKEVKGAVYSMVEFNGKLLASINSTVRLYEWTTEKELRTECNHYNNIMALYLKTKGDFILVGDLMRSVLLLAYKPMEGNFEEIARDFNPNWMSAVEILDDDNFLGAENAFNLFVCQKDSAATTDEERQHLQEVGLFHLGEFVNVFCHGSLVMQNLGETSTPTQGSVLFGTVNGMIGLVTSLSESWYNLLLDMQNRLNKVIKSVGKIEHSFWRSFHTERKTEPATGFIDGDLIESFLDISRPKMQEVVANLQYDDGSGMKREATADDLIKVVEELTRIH

IKZF1 = target: T2, IKZF1 (Homo sapiens, UniProt Q13422+Q96SW2); assay: Western-blot assay, substrate protein degradation in hPBMCs: IKZF1; type: cell-based; settings: for substrate protein remaining % IKZF1: 24 hours of compound treatment, 50 nM and 500 nM; for IKZF1 substrate protein remaining %: compounds at 50 nM and 500 nM, 24 hours
T2 construct: effects of the compounds of the present disclosure on the expression of target proteins in cells; endogenous in cells; host or cells: human PBMCs (hPBMCs)
T2 sequence (Q13422 whole entry): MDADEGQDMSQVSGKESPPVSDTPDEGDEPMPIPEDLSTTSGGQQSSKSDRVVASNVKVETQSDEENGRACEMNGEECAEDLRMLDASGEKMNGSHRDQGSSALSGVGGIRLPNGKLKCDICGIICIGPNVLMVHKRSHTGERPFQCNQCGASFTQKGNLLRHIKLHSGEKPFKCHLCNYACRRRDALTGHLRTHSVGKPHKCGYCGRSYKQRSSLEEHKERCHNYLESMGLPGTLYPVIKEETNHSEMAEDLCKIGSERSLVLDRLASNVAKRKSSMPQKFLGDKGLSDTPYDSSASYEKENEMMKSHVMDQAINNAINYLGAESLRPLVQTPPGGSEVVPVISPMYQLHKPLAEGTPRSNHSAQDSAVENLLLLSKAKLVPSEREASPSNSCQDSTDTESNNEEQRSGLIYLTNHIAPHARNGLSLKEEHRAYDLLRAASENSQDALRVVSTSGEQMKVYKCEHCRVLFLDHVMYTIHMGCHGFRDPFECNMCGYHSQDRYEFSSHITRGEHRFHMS
T2 sequence (Q96SW2 whole entry): as the sequence (Q96SW2 whole entry) above
T2 sequence (Q16531 whole entry partner): as the sequence (Q16531 whole entry partner) above

CK1α = target: T3, CK1α (Homo sapiens, UniProt P48729+Q96SW2); assay: Western-blot assay, substrate protein degradation in hPBMCs: CK1α; type: cell-based; settings: for substrate protein remaining % CK1α: 24 hours of compound treatment, 50 nM and 500 nM; for CK1α substrate protein remaining %: compounds at 50 nM and 500 nM, 24 hours
T3 construct: effects of the compounds of the present disclosure on the expression of target proteins in cells; endogenous in cells; host or cells: human PBMCs (hPBMCs)
T3 sequence (P48729 whole entry): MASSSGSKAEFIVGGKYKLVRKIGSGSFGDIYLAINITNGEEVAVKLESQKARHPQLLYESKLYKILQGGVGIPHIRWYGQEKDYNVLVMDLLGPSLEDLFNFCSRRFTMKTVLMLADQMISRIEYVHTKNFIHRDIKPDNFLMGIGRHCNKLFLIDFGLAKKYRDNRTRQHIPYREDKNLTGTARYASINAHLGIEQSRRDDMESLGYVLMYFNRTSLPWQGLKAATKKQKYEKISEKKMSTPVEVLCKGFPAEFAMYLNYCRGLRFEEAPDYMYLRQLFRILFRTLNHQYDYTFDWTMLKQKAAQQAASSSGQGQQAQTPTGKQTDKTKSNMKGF
T3 sequence (Q96SW2 whole entry): as the sequence (Q96SW2 whole entry) above
T3 sequence (Q16531 whole entry partner): as the sequence (Q16531 whole entry partner) above

IKZF2 = target: T4, IKZF2 (Homo sapiens, UniProt Q96SW2+Q9UKS7); assay: Western-blot assay, substrate protein degradation in hPBMCs: IKZF2; type: cell-based; settings: for substrate protein remaining % IKZF2: 24 hours of compound treatment, 50 nM and 500 nM; for IKZF2 substrate protein remaining %: compounds at 50 nM and 500 nM, 24 hours
T4 construct: effects of the compounds of the present disclosure on the expression of target proteins in cells; endogenous in cells; host or cells: human PBMCs (hPBMCs)
T4 sequence (Q9UKS7 whole entry): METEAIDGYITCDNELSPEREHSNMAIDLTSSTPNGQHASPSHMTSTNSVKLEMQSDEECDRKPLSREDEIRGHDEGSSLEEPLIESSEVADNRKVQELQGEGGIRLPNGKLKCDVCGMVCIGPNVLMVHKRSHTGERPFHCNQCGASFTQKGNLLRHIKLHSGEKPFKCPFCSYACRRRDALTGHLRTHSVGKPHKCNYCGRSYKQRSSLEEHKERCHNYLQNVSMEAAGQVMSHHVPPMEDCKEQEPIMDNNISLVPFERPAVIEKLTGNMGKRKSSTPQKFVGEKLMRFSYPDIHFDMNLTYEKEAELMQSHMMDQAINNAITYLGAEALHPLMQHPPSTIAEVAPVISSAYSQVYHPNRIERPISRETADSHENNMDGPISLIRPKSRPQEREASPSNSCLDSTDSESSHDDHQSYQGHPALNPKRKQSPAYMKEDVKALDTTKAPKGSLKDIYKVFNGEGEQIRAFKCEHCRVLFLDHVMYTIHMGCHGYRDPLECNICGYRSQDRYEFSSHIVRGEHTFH
T4 sequence (Q96SW2 whole entry): as the sequence (Q96SW2 whole entry) above
T4 sequence (Q16531 whole entry partner): as the sequence (Q16531 whole entry partner) above

WEE1 = target: T5, WEE1 (Homo sapiens, UniProt P30291+Q96SW2); assay: Western-blot assay, substrate protein degradation in hPBMCs: WEE1; type: cell-based; settings: for substrate protein remaining % WEE1: 24 hours of compound treatment, 50 nM and 500 nM; for WEE1 substrate protein remaining %: compounds at 50 nM and 500 nM, 24 hours
T5 construct: effects of the compounds of the present disclosure on the expression of target proteins in cells; endogenous in cells; host or cells: human PBMCs (hPBMCs)
T5 sequence (P30291 whole entry): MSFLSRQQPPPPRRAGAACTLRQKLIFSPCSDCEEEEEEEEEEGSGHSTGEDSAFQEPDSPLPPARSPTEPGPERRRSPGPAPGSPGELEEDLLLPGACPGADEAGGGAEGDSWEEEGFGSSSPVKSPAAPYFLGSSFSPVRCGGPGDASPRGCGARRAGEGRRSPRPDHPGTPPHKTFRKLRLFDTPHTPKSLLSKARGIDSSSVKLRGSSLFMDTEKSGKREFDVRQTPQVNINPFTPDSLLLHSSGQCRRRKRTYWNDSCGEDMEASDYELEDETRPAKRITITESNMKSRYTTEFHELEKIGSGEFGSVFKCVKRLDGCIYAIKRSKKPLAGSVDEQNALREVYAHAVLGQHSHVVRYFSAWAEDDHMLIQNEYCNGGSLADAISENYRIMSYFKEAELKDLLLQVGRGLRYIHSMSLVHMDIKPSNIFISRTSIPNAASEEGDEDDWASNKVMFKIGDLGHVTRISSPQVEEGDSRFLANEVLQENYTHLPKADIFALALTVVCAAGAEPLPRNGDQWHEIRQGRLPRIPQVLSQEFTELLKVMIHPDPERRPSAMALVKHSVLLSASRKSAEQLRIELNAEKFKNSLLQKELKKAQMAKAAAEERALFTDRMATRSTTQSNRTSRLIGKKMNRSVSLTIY
T5 sequence (Q96SW2 whole entry): as the sequence (Q96SW2 whole entry) above
T5 sequence (Q16531 whole entry partner): as the sequence (Q16531 whole entry partner) above

GSPT1 = target: T6, GSPT1 (Homo sapiens, UniProt P15170+Q96SW2); assay: Western-blot assay, substrate protein degradation in hPBMCs: GSPT1; type: cell-based; settings: for substrate protein remaining % GSPT1: 24 hours of compound treatment, 50 nM and 500 nM; for GSPT1 substrate protein remaining %: compounds at 50 nM and 500 nM, 24 hours
T6 construct: effects of the compounds of the present disclosure on the expression of target proteins in cells; endogenous in cells; host or cells: human PBMCs (hPBMCs)

SMILES | inhibition at 0.01 µM (H292) [%] | inhibition at 0.5 µM (H292) [%] | substrate protein remaining % IKZF3 (IKZF3) | substrate protein remaining % IKZF1 (IKZF1) | substrate protein remaining % CK1α (CK1α) | substrate protein remaining % IKZF2 (IKZF2) | substrate protein remaining % WEE1 (WEE1) | substrate protein remaining % GSPT1 (GSPT1) | further results
CC(C)c1cc2c(C3=CCN(Cc4ccc5c(c4)C(=O)N(N4CCC(=O)NC4=O)C5=O)CC3)ncnc2s1 [GT-08429, 2-(2,4-dioxotetrahydropyrimidin-1(2H)-yl)-5-((4-(6-isopropylthieno[2,3-d]pyrimidin-4-yl)-3,6-dihydropyridin-1(2H)-yl)methyl)isoindoline-1,3-dione] | 20 to 40 | 20 to 40 |  |  |  |  |  |  | 
O=C1CCN(N2C(=O)c3ccc(CN4CCN(c5nc6c(c(N7CCOCC7)n5)SCC6)CC4)cc3C2=O)C(=O)N1 [GT-08451, 2-(2,4-dioxotetrahydropyrimidin-1(2H)-yl)-5-((4-(4-morpholino-6,7-dihydrothieno[3,2-d]pyrimidin-2-yl)piperazin-1-yl)methyl)isoindoline-1,3-dione] | 15 to 20 | 20 to 40 | A (0% ≤ substrate protein remaining % ≤ 80%) | B (80%< substrate protein remaining %≤ 100%) | A (0% ≤ substrate protein remaining % ≤ 80%) | B (80%< substrate protein remaining %≤ 100%) | B (80%< substrate protein remaining %≤ 100%) | B (80%< substrate protein remaining %≤ 100%) | 
O=C1CCN(N2Cc3cc(CN4CCN(c5nc(Cl)nc6c5SCC6)CC4)ccc3C2=O)C(=O)N1 [GT-08439, 1-(5-((4-(2-chloro-6,7-dihydrothieno[3,2-d]pyrimidin-4-yl)piperazin-1-yl)methyl)-1-oxoisoindolin-2-yl)dihydropyrimidine-2,4(1H,3H)-dione] | 20 to 40 | 20 to 40 | A (0% ≤ substrate protein remaining % ≤ 80%) | A (0% ≤ substrate protein remaining % ≤ 80%) | B (80%< substrate protein remaining %≤ 100%) | B (80%< substrate protein remaining %≤ 100%) | A (0% ≤ substrate protein remaining % ≤ 80%) | A (0% ≤ substrate protein remaining % ≤ 80%) | 
O=C1CCN(N2Cc3cc(CN4CC(n5cnc6cc(F)ccc65)C4)ccc3C2=O)C(=O)N1 [GT-07723, 1-(5-((3-(5-fluoro-1H-benzo[d]imidazol-1-yl)azetidin-1-yl)methyl)-1-oxoisoindolin-2-yl)dihydropyrimidine-2,4(1H,3H)-dione] | 15 to 20 | 5 to 10 |  |  |  |  |  |  | 
CC1(C)[C@@H]2CC[C@]1(CS(=O)(=O)NCc1ccc3c(c1)CN(N1CCC(=O)NC1=O)C3=O)C(=O)C2 [GT-08133, 1-((1R,4R)-7,7-dimethyl-2-oxobicyclo[2.2.1]heptan-1-yl)-N-((2-(2,4-dioxotetrahydropyrimidin-1(2H)-yl)-1-oxoisoindolin-5-yl)methyl)methanesulfonamide] | 15 to 20 | 20 to 40 |  |  |  |  |  |  | 
Cc1nc(C2CCN(Cc3ccc4c(c3)C(=O)N(N3CCC(=O)NC3=O)C4=O)CC2)c2c3c(sc2n1)CCC3 [GT-08426, 2-(2,4-dioxotetrahydropyrimidin-1(2H)-yl)-5-((4-(2-methyl-6,7-dihydro-5H-cyclopenta[4,5]thieno[2,3-d]pyrimidin-4-yl)piperidin-1-yl)methyl)isoindoline-1,3-dione] | 20 to 40 | 20 to 40 |  |  |  |  |  |  | 
O=C1CCN(N2C(=O)c3ccc(CN4CCC(c5ncnc6sc7c(c56)CCC7)CC4)cc3C2=O)C(=O)N1 [GT-08425, 5-((4-(6,7-dihydro-5H-cyclopenta[4,5]thieno[2,3-d]pyrimidin-4-yl)piperidin-1-yl)methyl)-2-(2,4-dioxotetrahydropyrimidin-1(2H)-yl)isoindoline-1,3-dione] | 15 to 20 | 5 to 10 |  |  |  |  |  |  | 
O=C1CCN(N2C(=O)c3ccc(CN4CCN(c5nc(N6CCOCC6)c6sccc6n5)CC4)cc3C2=O)C(=O)N1 [GT-08456, 2-(2,4-dioxotetrahydropyrimidin-1(2H)-yl)-5-((4-(4-morpholinothieno[3,2-d]pyrimidin-2-yl)piperazin-1-yl)methyl)isoindoline-1,3-dione] | 5 to 10 | 20 to 40 |  |  |  |  |  |  | 
Cc1nc(N2CCN(Cc3ccc4c(c3)C(=O)N(N3CCC(=O)NC3=O)C4=O)CC2)c2ccsc2n1 [GT-08100, 2-(2,4-dioxotetrahydropyrimidin-1(2H)-yl)-5-((4-(2-methylthieno[2,3-d]pyrimidin-4-yl)piperazin-1-yl)methyl)isoindoline-1,3-dione] | 5 to 10 | 10 to 15 |  |  |  |  |  |  | 
O=C1CCN(N2Cc3cc(CN4CCN(C(c5ccccc5)c5cccnc5)CC4)ccc3C2=O)C(=O)N1 (stereo not drawn) [GT-06376, 1-(1-oxo-5-((4-(phenyl(pyridin-3-yl)methyl)piperazin-1-yl)methyl)isoindolin-2-yl)dihydropyrimidine-2,4(1H,3H)-dione] |  |  |  |  |  |  |  |  | IKZF3 substrate protein remaining % (IKZF3): B ("B" is defined as 80%< substrate protein remaining %≤ 100%); IKZF1 substrate protein remaining % (IKZF1): B ("B" is defined as 80%< substrate protein remaining %≤ 100%); CK1α substrate protein remaining % (CK1α): B ("B" is defined as 80%< substrate protein remaining %≤ 100%); IKZF2 substrate protein remaining % (IKZF2): A ("A" is defined as 0% ≤ substrate protein remaining % ≤ 80%); WEE1 substrate protein remaining % (WEE1): A ("A" is defined as 0% ≤ substrate protein remaining % ≤ 80%); GSPT1 substrate protein remaining % (GSPT1): A ("A" is defined as 0% ≤ substrate protein remaining % ≤ 80%)
O=C1CCN(N2C(=O)c3ccc(CN4CC5CC(C4)N5c4cccc(Cl)c4Cl)cc3C2=O)C(=O)N1 [GT-07434, 5-((6-(2,3-dichlorophenyl)-3,6-diazabicyclo[3.1.1]heptan-3-yl)methyl)-2-(2,4-dioxotetrahydropyrimidin-1(2H)-yl)isoindoline-1,3-dione] |  |  | B (80%< substrate protein remaining %≤ 100%) | B (80%< substrate protein remaining %≤ 100%) | A (0% ≤ substrate protein remaining % ≤ 80%) | B (80%< substrate protein remaining %≤ 100%) | B (80%< substrate protein remaining %≤ 100%) | B (80%< substrate protein remaining %≤ 100%) | 
O=C1CCN(N2Cc3cc(CN4C5CCC4CN(c4cccc(Cl)c4Cl)C5)ccc3C2=O)C(=O)N1 [GT-07430, 1-(5-((3-(2,3-dichlorophenyl)-3,8-diazabicyclo[3.2.1]octan-8-yl)methyl)-1-oxoisoindolin-2-yl)dihydropyrimidine-2,4(1H,3H)-dione] |  |  | B (80%< substrate protein remaining %≤ 100%) | A (0% ≤ substrate protein remaining % ≤ 80%) | A (0% ≤ substrate protein remaining % ≤ 80%) | B (80%< substrate protein remaining %≤ 100%) | B (80%< substrate protein remaining %≤ 100%) | A (0% ≤ substrate protein remaining % ≤ 80%) | 
Cc1ccsc1N1CCN(Cc2ccc3c(c2)CN(N2CCC(=O)NC2=O)C3=O)CC1 [GT-05084, 1-(5-((4-(3-methylthiophen-2-yl)piperazin-1-yl)methyl)-1-oxoisoindolin-2-yl)dihydropyrimidine-2,4(1H,3H)-dione] |  |  |  |  |  |  |  |  | IKZF3 substrate protein remaining % (IKZF3): B ("B" is defined as 80%< substrate protein remaining %≤ 100%); IKZF1 substrate protein remaining % (IKZF1): B ("B" is defined as 80%< substrate protein remaining %≤ 100%); CK1α substrate protein remaining % (CK1α): B ("B" is defined as 80%< substrate protein remaining %≤ 100%); IKZF2 substrate protein remaining % (IKZF2): A ("A" is defined as 0% ≤ substrate protein remaining % ≤ 80%); WEE1 substrate protein remaining % (WEE1): B ("B" is defined as 80%< substrate protein remaining %≤ 100%); GSPT1 substrate protein remaining % (GSPT1): B ("B" is defined as 80%< substrate protein remaining %≤ 100%)
O=C1CCN(N2C(=O)c3ccc(CN4CCN(c5cccc(Br)c5)CC4)cc3C2=O)C(=O)N1 [GT-06722, 5-((4-(3-bromophenyl)piperazin-1-yl)methyl)-2-(2,4-dioxotetrahydropyrimidin-1(2H)-yl)isoindoline-1,3-dione] |  |  |  |  |  |  |  |  | IKZF3 substrate protein remaining % (IKZF3): A ("A" is defined as 0% ≤ substrate protein remaining % ≤ 80%); IKZF1 substrate protein remaining % (IKZF1): A ("A" is defined as 0% ≤ substrate protein remaining % ≤ 80%); CK1α substrate protein remaining % (CK1α): A ("A" is defined as 0% ≤ substrate protein remaining % ≤ 80%); IKZF2 substrate protein remaining % (IKZF2): B ("B" is defined as 80%< substrate protein remaining %≤ 100%); WEE1 substrate protein remaining % (WEE1): A ("A" is defined as 0% ≤ substrate protein remaining % ≤ 80%); GSPT1 substrate protein remaining % (GSPT1): B ("B" is defined as 80%< substrate protein remaining %≤ 100%)
O=C1CCN(N2C(=O)c3ccc(CN4C5CCC4CN(c4cccc(Cl)c4Cl)C5)cc3C2=O)C(=O)N1 [GT-07438, 5-((3-(2,3-dichlorophenyl)-3,8-diazabicyclo[3.2.1]octan-8-yl)methyl)-2-(2,4-dioxotetrahydropyrimidin-1(2H)-yl)isoindoline-1,3-dione] |  |  | B (80%< substrate protein remaining %≤ 100%) | B (80%< substrate protein remaining %≤ 100%) | A (0% ≤ substrate protein remaining % ≤ 80%) | B (80%< substrate protein remaining %≤ 100%) | A (0% ≤ substrate protein remaining % ≤ 80%) | A (0% ≤ substrate protein remaining % ≤ 80%) | 
